Results reported in patent US9790541B2, “Methods and compositions for labeling nucleic acids” (President and Fellows of Harvard College, priority 2005, dated 2017).

Assays:
[1] = test system: HeLa cells; test: Tracing a single sister chromatid: EdU pulse, chase of two cell cycles, Alexa568-azide staining; format: cell-based; conditions: EdU pulse during DNA synthesis, Alexa568-azide stain
Text: The purpose of the experiment reported herein was to label only one DNA molecule of the two that form a chromosome. That was accomplished by pulsing HeLa cells with EdU during DNA synthesis followed by a chase lasting two cell cycles, as depicted on FIG. 12. […] EdU allowed very nice resolution imaging of chromosomes in cells as shown by FIG. 13.

[2] = test system: HeLa cells; test: Staining of EdU-labeled live cells with TMR-propyl-azide, time-lapse fluorescence microscopy; format: cell-based; conditions: 200 nM TMR-propyl-azide, 37° C., FIG. 7
Experimental: Ascorbic acid (from a […] stock in water) was then added to this solution to a final concentration of 50 mM, and the resulting staining solution is mixed thoroughly.
Washes with methanol or ethanol may be performed to obtain low background
To facilitate live microscopic imaging, EdU-labeled cells were plated in coverslip chambers which were mounted on the heated stage (37° C.) of an inverted Nikon TE200)U microscope equipped for wide-field fluorescence microscopy as well as spinning-disk confocal fluorescence microscopy (Yokogama spinning disk confocal head from Perkin-Elmer). […] The cells were imaged by time-lapse fluorescent microscopy (one frame every 15 seconds) to detect the TMR signal accumulating in the nuclei of the EdU-labeled cells.

[3] = test system: HeLa cells; test: Labeling of HeLa cells with EdU, fixed/permeabilized, stained with Xrhodamine-azide; format: cell-based; conditions: 1 μM EdU; cell in anaphase; labeling pulse shorter than DNA replication time
Experimental: Ethynyl-dU (EdU) was used in tissue culture media (DMEM complemented with penicillin, streptomycin, and fetal calf serum (FCS)) ranging from 10 nM to 1 μM depending on the length of the labeling pulse. For example, if cells to be labeled were synchronized in the S phase, 100 nM to 1 μM of EdU was used for 1 to 2 hours. After labeling, the cells were washed 3 or 4 times with PBS and then tissue culture media was added.
Staining Solution: 100 mM Tris pH 8.5 (from 2 M stock in water), 0.5 to 1 mM CuSO4 (from 1 M stock in water), 0.5 to 1 μM fluorophore-azide (from approximately 10-100 mM stock in DMSO), and water (as required) were mixed together. Ascorbic acid (from a […] stock in water) was then added to this solution to a final concentration of 50-100 mM, and the resulting staining solution is mixed thoroughly using a vortex.
Cells can be fixed by any suitable method, e.g., cells can be fixed by aldehyde fixation (formaldehyde or glutaraldehyde), with or without permeabilization. After fixation, the cells were washed in buffer with or without non-ionic detergent (0.2-0.5% Triton X100). Before staining, cells were rinsed with buffer without detergent (PBS or TBS). The cells were then incubated in the presence of the staining solution for at least 30 minutes. Overnight staining is preferably performed in a cold room.

[4] = test system: mouse intestine and brain; test: In vivo labeling with EdU, organ sections stained with Xrhodamine-azide and Hoechst; parameters: species or system mice; conditions: 200 micrograms EdU intraperitoneally, organs harvested three days later
Experimental: BLAB/C mice were injected with 200 micrograms of EdU intraperitoneally. Three days later, organs were harvested, fixed, embedded in paraffin and sectioned. The sections were then de-waxed and stained with Xrhadomine-azide for 5 minutes, stained with Hoechst, washed and then mounted.

`C#Cc1cn([C@H]2C[C@H](O)[C@@H](CO)O2)c(=O)[nH]c1=O` [EdU, 5-ethynyl-2′ deoxyuracil] was tested, and the “DNA molecules of a chromosome labeled, first mitosis after labeling” value [1] was “both DNA molecules were labeled”, the “DNA molecules of a chromosome labeled, second mitosis” value [1] was “only one DNA molecule was labeled” and the “EdU detection over time (DNA staining intensity)” value [2] was “complete within minutes”. For the same compound, the “DNA labeling by EdU in HeLa cells” value [3] was “only the DNA replicating during the pulse was labeled”, the “EdU-labeled cells in intestine section” value ([4]; FIG. 8) was “cells with red nuclei are the cells which incorporated EdU” and the “EdU-labeled cells in brain section” value ([4]; FIG. 10) was “sole EdU-labeled cell”.
